What is called IC50 is the midpoint of a concentration-inhibition curve. Low values mean greater potency in that assay, high ones weaker potency in that assay.

Three molecules from US20180215727A1, “LYSYL OXIDASE-LIKE 2 INHIBITORS AND USES THEREOF” (PharmAkea, Inc., priority 2015, published 2018) can be followed below.

In the experiment the target is T1, human LOXL2 (Homo sapiens, UniProt Q9Y4K0).
T1 construct: expressed in transfected cells; secreted protein in 10-20x concentrated conditioned media
T1 sequence (Q9Y4K0 26-774): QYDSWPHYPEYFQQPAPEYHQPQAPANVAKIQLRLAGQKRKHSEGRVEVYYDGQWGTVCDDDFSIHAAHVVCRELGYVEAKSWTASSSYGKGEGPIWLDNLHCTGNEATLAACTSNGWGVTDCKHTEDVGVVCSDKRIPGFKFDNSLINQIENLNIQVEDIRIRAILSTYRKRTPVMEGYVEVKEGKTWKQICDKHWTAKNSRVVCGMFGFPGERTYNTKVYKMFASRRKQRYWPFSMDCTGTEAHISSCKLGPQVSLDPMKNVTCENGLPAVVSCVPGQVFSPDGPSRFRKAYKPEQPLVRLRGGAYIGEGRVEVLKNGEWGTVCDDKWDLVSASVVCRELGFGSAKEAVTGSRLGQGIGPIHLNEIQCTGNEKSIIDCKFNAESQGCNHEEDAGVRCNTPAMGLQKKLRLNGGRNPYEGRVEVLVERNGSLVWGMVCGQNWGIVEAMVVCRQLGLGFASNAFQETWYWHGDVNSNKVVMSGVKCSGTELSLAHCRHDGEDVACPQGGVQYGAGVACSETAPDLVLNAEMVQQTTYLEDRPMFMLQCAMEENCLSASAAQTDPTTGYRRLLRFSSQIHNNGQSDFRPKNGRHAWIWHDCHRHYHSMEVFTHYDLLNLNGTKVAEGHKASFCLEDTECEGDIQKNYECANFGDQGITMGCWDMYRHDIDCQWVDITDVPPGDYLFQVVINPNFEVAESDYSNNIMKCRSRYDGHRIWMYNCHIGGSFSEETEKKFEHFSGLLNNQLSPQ
In words: Human LOXL2 Amine Oxidase Activity Assay (Amplex Red fluorescence). The class given is biochemical. The settings on record: concentrated conditioned media from CHO cells stably expressing human LOXL2, test compound incubated 2 h at 37° C., pH8, DAP substrate. On the procedure:
Example B-1: Human LOXL2 Amine Oxidase Activity Assay
LOXL2 amine oxidase activity is evaluated by measuring Amplex Red fluorescence using 10-20× concentrated conditioned media from CHO cells stably expressing human LOXL2. To assay for amine oxidase activity, 10 μL of the concentrated conditioned media is incubated with 2 μL of test compound in DMSO and 73 μL Assay Buffer (50 mM Borate Buffer, pH8) for 2 h at 37° C. After the 2 h incubation, 5 μl of 10 mM 1,5-Diaminopentane (DAP) diluted in Assay Buffer and 10 μl of Amplex Red Mix (8.5 μl Assay Buffer+0.5 μl of 10 mM Amplex Red+1 μl of 500 U/ml Horseradish Peroxidase) are added and the plate mixed and immediately placed on the FlexStaion for fluorescence measurements. Fluorescence is read in kinetic mode every 2 min for 1 hour at excitation=544 and emission=590. The amine oxidase activity is calculated from the slope of the linear portion of the curve.

Where a name gives a salt, the structure may show the parent alone.

On to `NCc1cc(=O)c2cc(Br)ccc2o1` [Compound 1-1, 2-(Aminomethyl)-6-bromo-4H-chromen-4-one hydrochloride], for which the IC50 is less than 300 nM.

The molecule `NCc1cc(=O)c2cc(C(=O)N3C[C@@H](O)[C@H](F)C3)ccc2o1` [Compound 1-61, 2-(Aminomethyl)-6-((3R,4R)-3-fluoro-4-hydroxypyrrolidine-1-carbonyl)-4H-chromen-4-one hydrochloride] registered an IC50 of 300 to 1000 nM.

`NCc1cc(=O)c2cccc(Br)c2o1` [Compound 1-50, 2-(Aminomethyl)-8-bromo-4H-chromen-4-one hydrochloride] gave an IC50 of 300 to 1000 nM.
